Measurements reported in US20230150960A1, “COMPOSITIONS AND METHODS OF USING CYANINE DYES TO TARGET CANCER AND MITOCHONDRIA” (Thomas Jefferson University, priority 2020, published 2023).

What was measured:
Type in all cases: physicochemical
[1] = Solubility of glycerol-containing formulations (post vortexing, 30 min and overnight at 18° C.); details: glycerol-containing formulation, compound 2 mg/mL; for solubility at 30 min / solubility: 18 °C; for solubility at 30 min: after 30 minutes incubation at 18° C.; for solubility: overnight incubation at 18° C.; for solubility at 30 s: post vortexing
Protocol: (§1) Tables 3A, 3B, and 3C describe solubility experiments conducted with the indicated compounds under the listed conditions. Vortexing was conducted using a Denville Vortexer 59 (Denville Scientific Inc.), at maximum speed for 30 seconds. As used herein, the term overnight refers to a period lasting at least about 12-24 hours.

[2] = Solubility of sodium deoxycholate-containing formulations (post vortexing, 30 min and overnight at 18° C.); details: compound 2 mg/mL; for solubility at 30 s: post vortexing
Protocol: as §1, with “5A, 5B,” for “3A, 3B,”, “5C” for “3C”

[3] = Solubility of BSA-containing formulations (post vortexing, 30 min and overnight at 18° C.); details: BSA-containing formulation, aqueous with cosolvent or surfactant or cyclodextrin, compound 2 mg/mL; for solubility at 30 min / solubility: 18 °C; for solubility at 30 min: after 30 minutes incubation at 18° C.; for solubility: overnight incubation at 18° C.; for solubility at 30 s: post vortexing
Protocol: Vortexing was conducted using a Denville Vortexer 59 (Denville Scientific Inc.), at maximum speed for 30 seconds. As used herein, the term overnight refers to a period lasting at least about 12-24 hours.

solubility at 30 min ([1]; aqueous with cosolvent or surfactant or cyclodextrin, 10% glycerol, read-out: Solubility of glycerol-containing formulations after 30 min incubation at 18° C., 10%): < 2000 µg/mL | solubility ([1]; aqueous with cosolvent or surfactant or cyclodextrin, 10% glycerol, read-out: Solubility of glycerol-containing formulations after overnight incubation at 18° C., 10%): < 2000 µg/mL | solubility at 30 min ([1]; aqueous with cosolvent or surfactant or cyclodextrin, 20% glycerol, read-out: Solubility of glycerol-containing formulations after 30 min incubation at 18° C., 20%): < 2000 µg/mL | solubility ([1]; aqueous with cosolvent or surfactant or cyclodextrin, 20% glycerol, read-out: Solubility of glycerol-containing formulations after overnight incubation at 18° C., 20%): < 2000 µg/mL | solubility at 30 min ([1]; aqueous with cosolvent or surfactant or cyclodextrin, 30% glycerol, read-out: Solubility of glycerol-containing formulations after 30 min incubation at 18° C., 30%): < 2000 µg/mL | solubility ([1]; aqueous with cosolvent or surfactant or cyclodextrin, 30% glycerol, read-out: Solubility of glycerol-containing formulations after overnight incubation at 18° C., 30%): < 2000 µg/mL | solubility at 30 min ([1]; aqueous with cosolvent or surfactant or cyclodextrin, 40% glycerol, read-out: Solubility of glycerol-containing formulations after 30 min incubation at 18° C., 40%): < 2000 µg/mL | solubility ([1]; aqueous with cosolvent or surfactant or cyclodextrin, 40% glycerol, read-out: Solubility of glycerol-containing formulations after overnight incubation at 18° C., 40%): < 2000 µg/mL | solubility at 30 min ([1]; aqueous with cosolvent or surfactant or cyclodextrin, 50% glycerol, read-out: Solubility of glycerol-containing formulations after 30 min incubation at 18° C., 50%): < 2000 µg/mL | solubility ([1]; aqueous with cosolvent or surfactant or cyclodextrin, 50% glycerol, read-out: Solubility of glycerol-containing formulations after overnight incubation at 18° C., 50%): < 2000 µg/mL | solubility at 30 min ([1]; 0% glycerol, read-out: Solubility of glycerol-containing formulations after 30 min incubation at 18° C., 0%): < 2000 µg/mL | solubility ([1]; 0% glycerol, read-out: Solubility of glycerol-containing formulations after overnight incubation at 18° C., 0%): < 2000 µg/mL | solubility at 30 s ([1]; aqueous with cosolvent or surfactant or cyclodextrin, 10% glycerol, read-out: Solubility of glycerol-containing formulations post vortexing, 10%): < 2000 µg/mL | solubility at 30 s ([1]; aqueous with cosolvent or surfactant or cyclodextrin, 20% glycerol, read-out: Solubility of glycerol-containing formulations post vortexing, 20%): < 2000 µg/mL | solubility at 30 s ([1]; aqueous with cosolvent or surfactant or cyclodextrin, 30% glycerol, read-out: Solubility of glycerol-containing formulations post vortexing, 30%): < 2000 µg/mL | solubility at 30 s ([1]; aqueous with cosolvent or surfactant or cyclodextrin, 40% glycerol, read-out: Solubility of glycerol-containing formulations post vortexing, 40%): < 2000 µg/mL | solubility at 30 s ([1]; aqueous with cosolvent or surfactant or cyclodextrin, 50% glycerol, read-out: Solubility of glycerol-containing formulations post vortexing, 50%): < 2000 µg/mL | solubility at 30 s ([1]; 0% glycerol, read-out: Solubility of glycerol-containing formulations post vortexing, 0%): < 2000 µg/mL | Solubility of sodium deoxycholate-containing formulations after 30 min incubation at 18° C., 50 mg/mL ([2]; sodium deoxycholate 50 mg/mL, after 30 minutes incubation at 18° C.): MFG | Solubility of sodium deoxycholate-containing formulations after 30 min incubation at 18° C., 100 mg/mL ([2]; sodium deoxycholate 100 mg/mL, after 30 minutes incubation at 18° C.): MFG | solubility at 30 s ([2]; sodium deoxycholate-containing formulation, aqueous with cosolvent or surfactant or cyclodextrin, sodium deoxycholate 12.5 mg/mL, read-out: Solubility of sodium deoxycholate-containing formulations post vortexing, 12.5 mg/mL): < 2000 µg/mL | solubility at 30 s ([2]; sodium deoxycholate-containing formulation, aqueous with cosolvent or surfactant or cyclodextrin, sodium deoxycholate 25 mg/mL, read-out: Solubility of sodium deoxycholate-containing formulations post vortexing, 25 mg/mL): < 2000 µg/mL | solubility at 30 s ([2]; sodium deoxycholate-containing formulation, aqueous with cosolvent or surfactant or cyclodextrin, sodium deoxycholate 50 mg/mL, read-out: Solubility of sodium deoxycholate-containing formulations post vortexing, 50 mg/mL): < 2000 µg/mL | solubility at 30 s ([2]; sodium deoxycholate-containing formulation, aqueous with cosolvent or surfactant or cyclodextrin, sodium deoxycholate 100 mg/mL, read-out: Solubility of sodium deoxycholate-containing formulations post vortexing, 100 mg/mL): < 2000 µg/mL | solubility at 30 min ([2]; sodium deoxycholate-containing formulation, aqueous with cosolvent or surfactant or cyclodextrin, sodium deoxycholate 12.5 mg/mL, after 30 minutes incubation at 18° C.): < 2000 µg/mL | solubility ([2]; sodium deoxycholate-containing formulation, aqueous with cosolvent or surfactant or cyclodextrin, sodium deoxycholate 12.5 mg/mL, overnight incubation at 18° C., read-out: Solubility of sodium deoxycholate-containing formulations after overnight incubation at 18° C., 12.5 mg/mL): > 2000 µg/mL | solubility at 30 min ([3]; BSA 40 mg/mL, read-out: Solubility of BSA-containing formulations after 30 min incubation at 18° C., 40 mg/mL): < 2000 µg/mL | solubility ([3]; BSA 40 mg/mL, read-out: Solubility of BSA-containing formulations after overnight incubation at 18° C., 40 mg/mL): < 2000 µg/mL | solubility at 30 min ([3]; BSA 60 mg/mL, read-out: Solubility of BSA-containing formulations after 30 min incubation at 18° C., 60 mg/mL): < 2000 µg/mL | solubility ([3]; BSA 60 mg/mL, read-out: Solubility of BSA-containing formulations after overnight incubation at 18° C., 60 mg/mL): < 2000 µg/mL | solubility at 30 min ([3]; BSA 80 mg/mL, read-out: Solubility of BSA-containing formulations after 30 min incubation at 18° C., 80 mg/mL): < 2000 µg/mL | solubility ([3]; BSA 80 mg/mL, read-out: Solubility of BSA-containing formulations after overnight incubation at 18° C., 80 mg/mL): < 2000 µg/mL | solubility at 30 min ([3]; BSA 100 mg/mL, read-out: Solubility of BSA-containing formulations after 30 min incubation at 18° C., 100 mg/mL): < 2000 µg/mL | solubility ([3]; BSA 100 mg/mL, read-out: Solubility of BSA-containing formulations after overnight incubation at 18° C., 100 mg/mL): < 2000 µg/mL | solubility at 30 s ([3]; BSA 40 mg/mL, read-out: Solubility of BSA-containing formulations post vortexing, 40 mg/mL): < 2000 µg/mL | solubility at 30 s ([3]; BSA 60 mg/mL, read-out: Solubility of BSA-containing formulations post vortexing, 60 mg/mL): < 2000 µg/mL | solubility at 30 s ([3]; BSA 80 mg/mL, read-out: Solubility of BSA-containing formulations post vortexing, 80 mg/mL): < 2000 µg/mL | solubility at 30 s ([3]; BSA 100 mg/mL, read-out: Solubility of BSA-containing formulations post vortexing, 100 mg/mL): < 2000 µg/mL
Structure (SMILES): CCN1/C(=C/C=C/c2oc3ccccc3[n+]2CC)Oc2ccccc21 [JAC-R1, 3′,3′-Diethyloxacarbocyanine iodide]
